The values below come from the NIST ThermoML archive (doi:10.1021/je0601513).

± gives the expanded uncertainty stated by the source.

For series [1] the following is noted: 101.33 kPa, Liquid; for viscosity: Capillary tube (Ostwald / Ubbelohde) method.
A short description of series [2]: molar heat capacity at constant pressure. The settings on record: 101.33 kPa, Liquid, Small sample (50 mg) DSC.
A short description of series [3]: refractive index (Na D-line) (dimensionless). The settings on record: 101.33 kPa, Liquid, Standard Abbe refractometry.

As usually defined, the mass density is the mass of a sample divided by its volume. By viscosity is commonly meant the internal friction of a fluid under shear. In general, refractive index refers to a measure of how strongly the sample bends light. On to `C[S+](C)[O-]` [dimethyl sulfoxide], for which the mass density in series [1] (288.15 K) is 1105.39 ± 0.47 kg/m3; in series [1] (298.15 K), 1095.36 ± 0.45 kg/m3; in series [1] (308.15 K), 1085.31 ± 0.43 kg/m3. For the same compound, the viscosity in series [1] (288.15 K) was determined as 2.473 ± 0.029 mPa·s; in series [1] (298.15 K), 1.989 ± 0.023 mPa·s; in series [1] (308.15 K), 1.644 ± 0.019 mPa·s. The “molar heat capacity at constant pressure” value in series [2] (288.15 K) is 146.8 ± 2.3 J/K/mol; in series [2] (298.15 K), 152.4 ± 2.4 J/K/mol; in series [2] (308.15 K), 154.6 ± 2.4 J/K/mol. For the same compound, the values for the refractive index in series [3] (288.15 K), in series [3] (298.15 K) and in series [3] (308.15 K) were 1.4835 ± 0.0007, 1.4778 ± 0.0006 and 1.473 ± 0.0006, respectively.
`CCCO` [propan-1-ol]: the mass density in series [1] (288.15 K) was found to be 807.51 ± 0.28 kg/m3; in series [1] (298.15 K), 799.54 ± 0.29 kg/m3; in series [1] (308.15 K) it was 791.41 ± 0.3 kg/m3. The viscosity is given as 2.498 ± 0.028 mPa·s in series [1] (288.15 K), 1.952 ± 0.022 mPa·s in series [1] (298.15 K) and 1.564 ± 0.018 mPa·s in series [1] (308.15 K). Further, the “molar heat capacity at constant pressure” value worked out at 139 ± 2 J/K/mol in series [2] (288.15 K); 142.3 ± 2.2 J/K/mol in series [2] (293.15 K); 144.9 ± 2.2 J/K/mol in series [2] (298.15 K); 148.2 ± 2.3 J/K/mol in series [2] (303.15 K); 151 ± 2.3 J/K/mol in series [2] (308.15 K); 153.7 ± 2.4 J/K/mol in series [2] (313.15 K). For the same compound, the “molar heat capacity at constant pressure” value in series [2] (318.15 K) is listed as 157.1 ± 2.4 J/K/mol; in series [2] (323.15 K), 160.1 ± 2.5 J/K/mol; in series [2] (328.15 K) it was 164.5 ± 2.6 J/K/mol; in series [2] (333.15 K), 167.8 ± 2.6 J/K/mol. In addition, the refractive index in series [3] (288.15 K) came to 1.3893 ± 0.0007; in series [3] (298.15 K), 1.3837 ± 0.0006; in series [3] (308.15 K), 1.3795 ± 0.0005.
